# Where no end group is shown, it is not given here.
# Assays:
# Assay in all cases: MIC by broth dilution method
# Format in all cases: cell-based
# [1] = test system: Pseudomonas aeruginosa 99; details: P. aeru 99
# Description: (§1) Using the substances finally obtained in the above-described Experiments 35 to 42 and having no blocking group, MIC (minimum growth inhibitory concentration) against various bacteria was examined according to the broth dilution method, and the antibacterial activities were evaluated.
# (§2) H--(1-23)--NH(CH2)7 CH3 was synthesized according to the same procedures as described in Experiments 1 to 35, and the antibacterial activities thereof against various bacteria were examined in the same manner as in Example 1.
# [2] = test system: Enterobacter aerogenes IFO 13545; details: E. aero 13534
# Description: as §1, §2
# [3] = test system: Bacillus subtilis PCI 219; details: B. sub 219
# Description: as §1, §2
# Proteus mirabilis 1287 = details: P. mira 1287
# Description: as §1, §2
# [4] = test system: Salmonella enteritidis IFO 3313; details: S. ent 3313
# Description: as §1, §2
# Pseudomonas aeruginosa = details: P. aeru
# Description: as §1, §2
# Escherichia coli NIHJ = details: E. coli NIHJ
# Description: as §1, §2
# [5] = test system: Staphylococcus aureus FDA 209P; details: S. aure 209-P
# Description: as §1, §2
# Escherichia coli D 21 = test system: Escherichia coli D 21
# Description: as §1, §2
# [6] = test system: Pseudomonas aeruguinosa OT 97; details: P. aeru OT 97
# Description: as §1, §2
# E. coli JC-2 = test system: E. coli JC-2
# Description: as §1, §2
# Proteus mirabilis 129 = details: P. mira 129
# Description: as §1, §2
# [7] = test system: Streptococcus hemolyticus; details: S. hemo
# Description: as §1, §2
# Micrococcus luteus ML II = details: M. lute ML II
# Description: as §1, §2
substance,measurement,setting,value
"RWKIFKKIEKMGRNIRDGIVKAGPAIEVLGSAKAI-NH2 [Synthetic lepidopteran A, lepidopteran A, reference compound]",MIC,[1]; Table 1,8 µg/mL
same,MIC,[1]; Table 2,8 µg/mL
same,MIC,[2]; Table 1,8 µg/mL
same,MIC,[2]; Table 2,8 µg/mL
same,MIC,[3]; Table 1,32 µg/mL
same,MIC,[3]; Table 2,32 µg/mL
same,MIC,Proteus mirabilis 1287; Table 1,32 µg/mL
same,MIC,Proteus mirabilis 1287; Table 2,32 µg/mL
same,MIC,[4]; Table 1,4 µg/mL
same,MIC,[4]; Table 2,4 µg/mL
same,MIC,Pseudomonas aeruginosa; Table 1,8 µg/mL
same,MIC,Pseudomonas aeruginosa; Table 2,8 µg/mL
same,MIC,Escherichia coli NIHJ; Table 1,4 µg/mL
same,MIC,Escherichia coli NIHJ; Table 2,4 µg/mL
same,MIC,[5]; Table 1,8 µg/mL
same,MIC,[5]; Table 2,125 µg/mL
same,MIC,"Escherichia coli D 21; E. coli D 21, Table 1",2 µg/mL
same,MIC,"Escherichia coli D 21; E. coli D, Table 2",2 µg/mL
same,MIC,[6]; Table 1,8 µg/mL
same,MIC,[6]; Table 2,8 µg/mL
same,MIC,E. coli JC-2; Table 1,4 µg/mL
same,MIC,E. coli JC-2; Table 2,4 µg/mL
same,MIC,Proteus mirabilis 129; Table 1,32 µg/mL
same,MIC,Proteus mirabilis 129; Table 2,32 µg/mL
same,MIC,[7]; Table 1,"-- (Symbol ""--"" is meant to be MIC > 250 mcg/ml)"
same,MIC,[7]; Table 2,"-- (Symbol ""--"" is meant to be MIC > 250 mcg/ml)"
same,MIC,Micrococcus luteus ML II; Table 1,2 µg/mL
same,MIC,Micrococcus luteus ML II; Table 2,2 µg/mL
